The structures appear in SMILES notation.

Broadly, the melting point is the temperature of the solid-liquid transition.

For series [1] the following is noted: compared with levetiracetam, literature statement; cited from earlier work.

On to `CC[C@H](C(N)=O)N1CCCC1=O` [(R)-α-ethyl-2-oxo-1-pyrrolidine acetamide], for which the “activity in the treatment of epilepsy” value in series [1] was “completely lacks activity”.

The compound `C[C@@H](C(N)=O)N1C(=O)Cc2cc(Cl)ccc21` (single isomer, unassigned) [Compound 34] came in with a melting point of 171 to 172 °C.

With `C[C@H](C(N)=O)N1C(=O)Cc2cc(Cl)ccc21` (single isomer, unassigned) [Compound 33], the melting point was 171 to 172 °C.

The values above are taken from US7964593B2, “Indolone-acetamide derivatives, processes for preparing them and their uses” (UCB Pharma, S.A., priority 2003, dated 2011).
